Experimental data as given in article PMC13095408, “DBeQ derivative targets vacuolar protein sorting 4 functions in cancer cells and suppresses tumor growth in mice” (The Journal of Pharmacology and Experimental Therapeutics, 2025).

What was measured:
[1] = tested on: U2OS cells; assay: Live-cell quantification of YOYO-3-positive dead cells; type: cell-based
Protocol: To measure caspase activity, cells cultured in white opaque-bottom 384-well plates were incubated in the presence or absence of 1 μg/mL Dox for 24 hours. Caspase-Glo 8 or 3/7 reagent was then added 1:1 and allowed to incubate for 90 minutes at RT followed by luminescence measurement using the CLARIOstar microplate reader (BMG LABTECH). Signals had background luminescence subtracted and then normalized to the respective Dox-untreated i-GFP-expressing parental controls to obtain relative CASP8-like LETDase or CASP3/7-like DEVDase activities. For live-cell quantification, the cells seeded on black clear-bottom 96-well plates were incubated with the indicated compounds (0.1% to 0.3% DMSO final) in the presence of 100 nM YOYO-3, a cell-impermeant DNA-binding fluorescent probe that stains membrane integrity-impaired, dead cells. […] Phase and fluorescence images were obtained at the indicated intervals using the IncuCyte S3 Live-Cell Analysis System (Essen BioScience; 10× objective) and then analyzed using the Cell-by-Cell Analysis module (Essen BioScience; 9600-0031) of IncuCyte S3 Software (Essen BioScience; Version 2019B Rev2). To quantify the percentage of dead GFP-expressing cells, the GFP and YOYO-3 double-positive cell population was divided by the total GFP-positive cell population.

[2] = tested on: 9464D s.c. tumors; assay: 9464D syngeneic mouse model of neuroblastoma; type: in vivo; settings: 5 mg/kg/day, i.p.
Protocol: To establish a syngeneic tumor mouse model, 9464D cells were resuspended in 50% Matrigel Matrix in 1× PBS at a concentration of […] and a total of 0.1 mL of this mixture (1 × 10^6 cells) was subcutaneously injected into the flank of each of the 6 to 8-week-old B6 mice (n = 19; 12 M, 7 F). Fourteen days after engraftment, mice began daily intraperitoneal administration of either vehicle (n = 9; 6 M, 3 F) or 5 mg/kg 4-107 (n = 10; 6 M, 4 F). Mouse tumor volume was measured weekly, then every 1–3 days once vehicle-treated tumors reached 1000–2000 mm^3. Tumor volume was calculated as πLW^2/6 using length (L) and width (W) caliper measurements. Mouse body weight was measured daily. Humane endpoints were defined as tumor volume reaching 4000 mm^3 or mice reaching the aforementioned toxicity endpoints, at which point the affected mice were euthanized. The experimental endpoint was determined as the time when the majority of tumors from the control group reached 4000 mm^3.

[3] = target: T1, VPS4B (Homo sapiens, UniProt O75351); assay: VPS4B ATPase activity, EnzChek Phosphate assay; type: biochemical; parameters: His tag (pET28a vector-encoded) (N); made in house; host or cells: Escherichia coli BL21(DE3)
T1 sequence (O75351 1-444): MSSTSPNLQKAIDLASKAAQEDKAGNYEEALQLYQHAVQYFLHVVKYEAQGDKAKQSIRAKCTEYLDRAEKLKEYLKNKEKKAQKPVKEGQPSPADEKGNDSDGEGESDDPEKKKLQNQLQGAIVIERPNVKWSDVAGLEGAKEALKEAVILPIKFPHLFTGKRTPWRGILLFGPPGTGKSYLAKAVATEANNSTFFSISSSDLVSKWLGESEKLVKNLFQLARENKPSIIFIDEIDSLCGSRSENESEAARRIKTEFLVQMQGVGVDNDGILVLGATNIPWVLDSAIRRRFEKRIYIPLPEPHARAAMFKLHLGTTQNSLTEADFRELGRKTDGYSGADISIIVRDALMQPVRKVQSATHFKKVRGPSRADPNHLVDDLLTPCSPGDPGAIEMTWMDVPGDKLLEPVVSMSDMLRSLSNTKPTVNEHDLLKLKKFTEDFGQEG
Outline: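 EnzChek phosphate release (MESG/PNP, 360 nm) with ATPases at 1 μM (diluted stock) in HEPES pH 7.4 buffers with MgCl2, CaCl2, DTT, BSA, Triton; 30 min compound preincubation at RT, started with MgATP, read 20 min at 37 °C. Activity from 5-min linear initial rate, normalized to DMSO; IC50 from Hill slope −1 fit.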

COc1cccc2c(NCc3ccccc3)nc(NCc3ccccc3)nc12 [Compound 4-107, N^2,N^4-dibenzyl-8-methoxyquinazoline-2,4-diamine]
cell death (YOYO-3-positive dead cells) ([1]; 2 μM 4-107, WT U2OS cells): induced cell death in a time-dependent manner | enhanced temporal sensitivity of VPS4A- and VPS4B-deficient cells compared with WT cells ([1]; 2 μM 4-107, crVPS4A, crVPS4B vs WT U2OS): about 12 hours | tumor growth ([2]; from day 14 after engraftment, B6 mice): significantly reduced tumor growth | mice that tolerated treatment ([2]; tumor-bearing B6 mice): 7 of 10 | IC50 ([3]; 0.5 μM enzyme): 3.7 ± 0.1 µM | VPS4B ATPase (% DMSO) ([3]; remaining ATPase activity, screened at 5 μM, mean ± SD, Table 1, listed as 1): 36.67 ± 1.73 % DMSO | VPS4B ATPase (% DMSO) ([3]; screened at 5 µM, mean ± S.D., Supplemental Table 2): 36.67 ± 1.73 % DMSO
